This passage reports EC50, AC50 and IC50 results from ChEMBL document CHEMBL1201862, “PubChem BioAssay data set” (2004).

Assay [1] concerns the target Intestinal-type alkaline phosphatase (Mus musculus, UniProt P24822). As to the kind of experiment: mouse intestinal alkaline phosphatase activators, dose response, biochemical, luminescence, uHTS hits (AID 488783). Type of assay: functional.
Assay [2] concerns the target Intestinal-type alkaline phosphatase (Homo sapiens, UniProt P09923). As to the kind of experiment: activation of human intestinal alkaline phosphatase – biochemical, dose response (AID 488873). The assay is classed as functional.
For another assay, the target named is T1, Caspase-6 (Homo sapiens, UniProt P55212).
T1 sequence (P55212 whole entry): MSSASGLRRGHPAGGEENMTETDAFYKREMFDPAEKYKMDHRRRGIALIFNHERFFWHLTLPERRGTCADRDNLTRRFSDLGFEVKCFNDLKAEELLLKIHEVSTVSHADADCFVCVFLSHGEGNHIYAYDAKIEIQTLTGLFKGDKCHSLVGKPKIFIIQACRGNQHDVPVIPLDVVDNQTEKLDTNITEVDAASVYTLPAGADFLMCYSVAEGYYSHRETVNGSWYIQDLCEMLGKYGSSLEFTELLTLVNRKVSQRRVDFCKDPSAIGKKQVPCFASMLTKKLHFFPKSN
Nature of the assay: human caspase-6 inhibitors, dose response, biochemical, VEID-R110 fluorescence, cherry-pick (AID 720632).

The target of assay [3] is T2, Alkaline phosphatase, tissue-nonspecific isozyme (Homo sapiens, UniProt P05186).
T2 sequence (P05186 whole entry): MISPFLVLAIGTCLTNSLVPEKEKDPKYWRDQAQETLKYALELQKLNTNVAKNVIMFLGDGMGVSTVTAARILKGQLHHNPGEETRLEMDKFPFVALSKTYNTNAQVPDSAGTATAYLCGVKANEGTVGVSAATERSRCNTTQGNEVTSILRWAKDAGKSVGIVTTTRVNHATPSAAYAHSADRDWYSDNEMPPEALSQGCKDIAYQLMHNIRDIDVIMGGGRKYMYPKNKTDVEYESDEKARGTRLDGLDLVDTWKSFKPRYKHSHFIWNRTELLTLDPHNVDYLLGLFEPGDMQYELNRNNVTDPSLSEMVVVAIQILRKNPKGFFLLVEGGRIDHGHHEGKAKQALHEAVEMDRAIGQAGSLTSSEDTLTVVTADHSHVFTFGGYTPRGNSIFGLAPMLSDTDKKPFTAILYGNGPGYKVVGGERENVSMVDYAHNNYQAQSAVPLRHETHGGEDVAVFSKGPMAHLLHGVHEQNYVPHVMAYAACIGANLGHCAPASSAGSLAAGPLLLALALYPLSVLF
As to the kind of experiment: TNAP enzyme activators, dose response, selectivity assay for mouse IAP activator project, biochemical, TNAP isozyme, mouse IAP uHTS hits (AID 488880). The assay is classed as functional.

For assay [4], the target named is Signal transducer and activator of transcription 1-alpha/beta (Homo sapiens, UniProt P42224). As to the kind of experiment: STAT3 inhibitors, late-stage profile, late-stage follow-up, cell-based, STAT1 panel, qPCR, cytotoxicity, panel member STAT1 Inhibition (AID 2078).
The target in assay [5] is Signal transducer and activator of transcription 3 (Homo sapiens, UniProt P40763). As to the kind of experiment: STAT3 inhibitors, late-stage profile, late-stage follow-up, cell-based, STAT1 panel, qPCR, cytotoxicity, panel member STAT3 Inhibition (AID 2078).
Assay [6] addresses T3, Peroxisome proliferator-activated receptor gamma (Homo sapiens, UniProt P37231).
T3 sequence (P37231 whole entry): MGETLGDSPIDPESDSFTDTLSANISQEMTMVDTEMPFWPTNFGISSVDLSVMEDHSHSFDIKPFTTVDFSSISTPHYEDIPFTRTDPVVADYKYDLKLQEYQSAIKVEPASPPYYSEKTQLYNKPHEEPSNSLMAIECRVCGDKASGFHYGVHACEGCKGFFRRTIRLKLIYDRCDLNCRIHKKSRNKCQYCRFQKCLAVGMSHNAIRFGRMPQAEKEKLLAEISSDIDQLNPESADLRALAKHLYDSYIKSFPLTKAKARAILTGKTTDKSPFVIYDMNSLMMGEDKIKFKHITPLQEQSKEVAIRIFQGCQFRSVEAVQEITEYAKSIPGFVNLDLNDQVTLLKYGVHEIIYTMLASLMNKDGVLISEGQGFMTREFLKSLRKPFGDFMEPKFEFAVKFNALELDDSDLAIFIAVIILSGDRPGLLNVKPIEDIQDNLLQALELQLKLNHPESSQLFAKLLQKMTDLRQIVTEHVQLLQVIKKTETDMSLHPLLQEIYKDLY
As to the kind of experiment: PPARg partial agonists, dose response, cell-based, luminescence, assay provider (AID 504447). Type of assay: functional.

Assay [7] has as its target Peroxisome proliferator-activated receptor alpha (Homo sapiens, UniProt Q07869). Nature of the assay: Late stage assay provider counterscreen for partial agonists of the peroxisome proliferator-activated receptor gamma (PPARg): Luminescence-based cell-based dose response assay for partial agonists of the peroxisome proliferator-activated receptor alpha (PPARA). [Related pubchem assays (depositor defined):AID1051, AID1300, AID1319, AID1679, AID1808, AID504446, AID504447, AID504452, AID504453, AID631]. The assay is classed as functional. (Counterscreens check selectivity or assay interference.)

Assay [8] addresses T3, Peroxisome proliferator-activated receptor gamma. As to the kind of experiment: PPARg ligand-binding domain binders, dose response, PPARg partial agonist project, biochemical, TR-FRET, LanthaScreen (AID 504446). (In general: TR-FRET usually uses a lanthanide donor and a delayed reading to cut background.)
A further assay concerns the target T4, Bcl-2-related protein A1 (Mus musculus, UniProt Q07440).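 Further: confirmatory dose–response counterscreen on Bfl-1, used to check hits from a UBC13 polyubiquitin inhibitor campaign.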
T4 sequence (Q07440 whole entry): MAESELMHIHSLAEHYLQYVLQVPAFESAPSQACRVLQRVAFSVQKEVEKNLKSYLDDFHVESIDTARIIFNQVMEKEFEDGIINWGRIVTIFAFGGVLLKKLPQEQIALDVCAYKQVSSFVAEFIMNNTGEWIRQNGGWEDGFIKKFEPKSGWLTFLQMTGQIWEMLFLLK
The assay is classed as functional.

The target in assay [9] is T5, Ubiquitin-conjugating enzyme E2 N (Homo sapiens, UniProt P61088).
T5 sequence (P61088 whole entry): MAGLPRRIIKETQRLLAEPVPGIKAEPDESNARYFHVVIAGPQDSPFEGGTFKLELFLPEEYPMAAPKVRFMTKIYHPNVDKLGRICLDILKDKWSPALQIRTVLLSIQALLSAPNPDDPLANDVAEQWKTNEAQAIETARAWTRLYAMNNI
Type of assay: functional.

For assay [10], the target named is T5, Ubiquitin-conjugating enzyme E2 N. The assay is classed as functional. This is another data set of the same source.
The target in assay [11] is T6, Replicative DNA helicase DnaB (Mycobacterium tuberculosis, UniProt P9WMR3).
T6 sequence (P9WMR3 whole entry): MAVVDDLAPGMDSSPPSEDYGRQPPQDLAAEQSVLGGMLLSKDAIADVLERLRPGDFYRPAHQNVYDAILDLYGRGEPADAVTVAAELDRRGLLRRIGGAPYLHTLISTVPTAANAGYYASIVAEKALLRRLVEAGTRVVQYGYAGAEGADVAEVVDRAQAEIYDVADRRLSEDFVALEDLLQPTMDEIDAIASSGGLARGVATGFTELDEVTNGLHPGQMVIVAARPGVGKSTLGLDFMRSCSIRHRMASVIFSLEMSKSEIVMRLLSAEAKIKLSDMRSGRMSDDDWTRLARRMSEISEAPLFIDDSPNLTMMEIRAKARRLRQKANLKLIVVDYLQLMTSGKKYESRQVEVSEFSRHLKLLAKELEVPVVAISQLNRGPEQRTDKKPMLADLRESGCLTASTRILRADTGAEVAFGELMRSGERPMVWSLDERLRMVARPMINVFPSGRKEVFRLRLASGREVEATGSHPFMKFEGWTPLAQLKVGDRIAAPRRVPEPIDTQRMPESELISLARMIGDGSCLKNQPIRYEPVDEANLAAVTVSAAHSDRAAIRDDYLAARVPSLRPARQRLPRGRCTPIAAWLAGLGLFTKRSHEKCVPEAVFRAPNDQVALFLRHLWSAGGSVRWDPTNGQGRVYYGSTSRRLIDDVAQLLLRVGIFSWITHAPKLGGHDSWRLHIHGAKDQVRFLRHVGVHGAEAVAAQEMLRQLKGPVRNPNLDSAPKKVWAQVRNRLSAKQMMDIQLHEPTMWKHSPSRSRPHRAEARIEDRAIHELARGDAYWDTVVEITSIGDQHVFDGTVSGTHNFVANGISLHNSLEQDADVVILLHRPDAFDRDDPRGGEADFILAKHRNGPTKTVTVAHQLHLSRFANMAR
Nature of the assay: DnaB intein splicing inhibitors, dose response, biochemical, cell-free fluorescence (AID 449749). Type of assay: functional.

Assay [12] can be described thus: Counterscreen for antagonists of the orexin 1 receptor (OX1R; HCRTR1): Fluorescence-based cell-based high throughput dose response assay to identify antagonists of the parental CHO cell line. [Related pubchem assays (depositor defined):AID434989, AID435008, AID463079, AID485270, AID492963, AID492964, AID492965, AID493232, AID504699, AID504701]. Type of assay: functional.

For another assay, the system named is CHO-K1. Nature of the assay: Counterscreen for antagonists of the orexin 1 receptor (OX1R; HCRTR1): Homogeneous time resolved fluorescence (HTRF)-based cell-based dose response assay to identify antagonists of the parental CHO-K1 cell line. [Related pubchem assays (depositor defined):AID434989, AID435008, AID463079, AID485270, AID492963, AID492964, AID492965, AID493232, AID504699, AID504701]. The assay is classed as functional. The following applies: Cricetulus griseus.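 Further: potency for inhibition of ATP-stimulated IP1 production as antagonists.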

Assay [13] addresses T7, Orexin/Hypocretin receptor type 1 (Homo sapiens, UniProt O43613). Nature of the assay: Homogeneous Time Resolved Fluorescence (HTRF)-based cell-based high throughput dose response assay for antagonists of the orexin 1 receptor (OX1R; HCRTR1). [Related pubchem assays (depositor defined):AID434989, AID435008, AID463079, AID485270, AID492963, AID492964, AID492965, AID493232, AID504717, AID504718]. Type of assay: functional.

Assay [14] deals with T7, Orexin/Hypocretin receptor type 1. As to the kind of experiment: Fluorescence-based cell-based high throughput dose response assay for antagonists of the orexin 1 receptor (OX1R; HCRTR1). [Related pubchem assays (depositor defined):AID434989, AID435008, AID463079, AID485270, AID492963, AID492964, AID492965, AID493232, AID504717, AID504718]. The assay is classed as functional.

In the next assay the target is T8, Protein RecA (Mycobacterium tuberculosis, UniProt P9WHJ3).
T8 sequence (P9WHJ3 whole entry): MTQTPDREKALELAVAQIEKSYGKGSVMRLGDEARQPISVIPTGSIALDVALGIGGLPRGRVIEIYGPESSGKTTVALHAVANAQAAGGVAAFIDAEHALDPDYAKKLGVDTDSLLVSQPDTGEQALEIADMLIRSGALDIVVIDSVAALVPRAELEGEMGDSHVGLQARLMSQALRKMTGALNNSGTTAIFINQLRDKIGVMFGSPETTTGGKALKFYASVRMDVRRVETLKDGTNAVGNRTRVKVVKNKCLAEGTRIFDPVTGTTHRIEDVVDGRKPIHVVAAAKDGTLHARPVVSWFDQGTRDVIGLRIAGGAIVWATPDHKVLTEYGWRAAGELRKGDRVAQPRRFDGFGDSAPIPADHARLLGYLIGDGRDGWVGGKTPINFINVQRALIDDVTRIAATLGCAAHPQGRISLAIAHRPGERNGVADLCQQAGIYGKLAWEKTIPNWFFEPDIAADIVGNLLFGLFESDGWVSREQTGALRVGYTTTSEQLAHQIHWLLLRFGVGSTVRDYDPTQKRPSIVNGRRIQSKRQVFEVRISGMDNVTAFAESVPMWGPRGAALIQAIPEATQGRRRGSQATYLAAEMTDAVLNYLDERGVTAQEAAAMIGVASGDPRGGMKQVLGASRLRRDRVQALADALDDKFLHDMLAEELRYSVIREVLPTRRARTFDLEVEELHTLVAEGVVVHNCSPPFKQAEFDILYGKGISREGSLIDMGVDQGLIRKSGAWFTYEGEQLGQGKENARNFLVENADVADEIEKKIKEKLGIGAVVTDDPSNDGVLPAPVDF
Nature of the assay: Fluorescence Cell-Free Homogeneous Dose Retest to Identify Inhibitors of RecA-Intein Splicing Activity. [Related pubchem assays (depositor defined):AID2097, AID2223, AID489010, AID492950]. Type of assay: functional.

SMILES strings stand for the structures. Active and inactive are the calls of the source.

T7 sequence (O43613 whole entry): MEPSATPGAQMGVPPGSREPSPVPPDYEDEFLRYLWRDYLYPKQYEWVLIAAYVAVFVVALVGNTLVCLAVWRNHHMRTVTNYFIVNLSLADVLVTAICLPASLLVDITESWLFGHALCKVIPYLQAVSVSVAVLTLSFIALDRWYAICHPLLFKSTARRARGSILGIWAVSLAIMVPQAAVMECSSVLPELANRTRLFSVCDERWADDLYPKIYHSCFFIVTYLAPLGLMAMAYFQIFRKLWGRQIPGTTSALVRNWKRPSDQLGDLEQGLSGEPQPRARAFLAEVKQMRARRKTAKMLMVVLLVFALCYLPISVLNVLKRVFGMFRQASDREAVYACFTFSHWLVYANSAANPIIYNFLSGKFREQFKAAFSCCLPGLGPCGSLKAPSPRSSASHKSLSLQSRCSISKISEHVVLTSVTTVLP
Signal transducer and activator of transcription 1-alpha/beta, sequence (P42224 whole entry): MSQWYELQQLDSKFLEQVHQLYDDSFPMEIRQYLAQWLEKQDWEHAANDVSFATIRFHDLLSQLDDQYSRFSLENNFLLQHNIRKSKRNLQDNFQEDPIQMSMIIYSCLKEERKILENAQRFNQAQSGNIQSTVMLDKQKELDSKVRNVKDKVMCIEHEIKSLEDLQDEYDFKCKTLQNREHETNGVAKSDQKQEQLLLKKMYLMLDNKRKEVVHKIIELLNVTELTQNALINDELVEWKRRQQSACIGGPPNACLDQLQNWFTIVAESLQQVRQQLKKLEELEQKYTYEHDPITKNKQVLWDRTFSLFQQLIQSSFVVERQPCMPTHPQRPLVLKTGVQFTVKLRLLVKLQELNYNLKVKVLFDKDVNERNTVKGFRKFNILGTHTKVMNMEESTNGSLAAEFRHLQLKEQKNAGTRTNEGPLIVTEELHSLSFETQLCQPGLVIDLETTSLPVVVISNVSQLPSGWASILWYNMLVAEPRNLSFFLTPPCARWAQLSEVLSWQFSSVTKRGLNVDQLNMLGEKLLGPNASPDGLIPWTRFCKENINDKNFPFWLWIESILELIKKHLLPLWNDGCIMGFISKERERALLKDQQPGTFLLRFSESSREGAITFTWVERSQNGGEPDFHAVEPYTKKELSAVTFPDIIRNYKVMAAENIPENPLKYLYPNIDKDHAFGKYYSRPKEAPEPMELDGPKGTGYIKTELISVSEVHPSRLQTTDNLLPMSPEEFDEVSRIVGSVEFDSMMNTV
Intestinal-type alkaline phosphatase (Homo sapiens, UniProt P09923), sequence (P09923 whole entry): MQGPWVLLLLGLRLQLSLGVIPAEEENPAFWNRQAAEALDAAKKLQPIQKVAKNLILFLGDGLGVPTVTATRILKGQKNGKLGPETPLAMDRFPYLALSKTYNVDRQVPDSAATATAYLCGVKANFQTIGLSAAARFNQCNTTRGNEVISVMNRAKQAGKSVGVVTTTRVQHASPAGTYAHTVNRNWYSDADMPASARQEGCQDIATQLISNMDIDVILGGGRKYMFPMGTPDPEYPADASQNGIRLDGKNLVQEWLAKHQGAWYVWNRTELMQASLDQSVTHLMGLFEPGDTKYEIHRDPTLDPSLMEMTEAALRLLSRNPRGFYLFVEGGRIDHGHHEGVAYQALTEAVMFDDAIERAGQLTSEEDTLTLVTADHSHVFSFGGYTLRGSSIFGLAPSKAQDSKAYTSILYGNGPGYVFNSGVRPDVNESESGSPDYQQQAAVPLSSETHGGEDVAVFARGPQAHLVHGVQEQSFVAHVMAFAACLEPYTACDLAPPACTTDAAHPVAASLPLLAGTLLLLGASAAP
Peroxisome proliferator-activated receptor alpha, sequence (Q07869 whole entry): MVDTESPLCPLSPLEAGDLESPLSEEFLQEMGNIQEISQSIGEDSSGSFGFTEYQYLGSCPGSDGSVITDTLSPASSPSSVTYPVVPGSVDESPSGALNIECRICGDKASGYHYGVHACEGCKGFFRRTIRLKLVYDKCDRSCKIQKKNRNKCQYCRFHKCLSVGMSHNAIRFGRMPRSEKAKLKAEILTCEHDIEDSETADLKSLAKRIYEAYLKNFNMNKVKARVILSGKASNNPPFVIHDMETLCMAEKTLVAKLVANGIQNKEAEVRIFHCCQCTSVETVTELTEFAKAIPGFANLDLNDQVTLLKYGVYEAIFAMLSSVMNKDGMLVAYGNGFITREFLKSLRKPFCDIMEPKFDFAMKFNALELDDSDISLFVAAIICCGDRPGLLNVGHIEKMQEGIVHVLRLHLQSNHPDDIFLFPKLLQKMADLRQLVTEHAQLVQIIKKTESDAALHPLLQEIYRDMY
Intestinal-type alkaline phosphatase (Mus musculus, UniProt P24822), sequence (P24822 whole entry): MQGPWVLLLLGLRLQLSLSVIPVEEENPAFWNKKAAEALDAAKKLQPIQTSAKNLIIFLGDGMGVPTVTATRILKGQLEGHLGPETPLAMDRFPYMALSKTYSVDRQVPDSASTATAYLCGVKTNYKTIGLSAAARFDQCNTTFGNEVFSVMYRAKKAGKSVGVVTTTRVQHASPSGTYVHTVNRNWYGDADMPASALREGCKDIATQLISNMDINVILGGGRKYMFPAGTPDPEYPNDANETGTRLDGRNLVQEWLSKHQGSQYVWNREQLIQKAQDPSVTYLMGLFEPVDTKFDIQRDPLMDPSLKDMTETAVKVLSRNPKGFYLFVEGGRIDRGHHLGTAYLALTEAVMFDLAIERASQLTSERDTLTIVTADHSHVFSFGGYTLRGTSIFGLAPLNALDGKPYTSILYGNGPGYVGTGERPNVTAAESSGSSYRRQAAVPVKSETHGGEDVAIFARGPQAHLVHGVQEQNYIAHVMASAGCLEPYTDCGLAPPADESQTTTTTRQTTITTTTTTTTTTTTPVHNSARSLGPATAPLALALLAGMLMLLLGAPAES
Signal transducer and activator of transcription 3, sequence (P40763 whole entry): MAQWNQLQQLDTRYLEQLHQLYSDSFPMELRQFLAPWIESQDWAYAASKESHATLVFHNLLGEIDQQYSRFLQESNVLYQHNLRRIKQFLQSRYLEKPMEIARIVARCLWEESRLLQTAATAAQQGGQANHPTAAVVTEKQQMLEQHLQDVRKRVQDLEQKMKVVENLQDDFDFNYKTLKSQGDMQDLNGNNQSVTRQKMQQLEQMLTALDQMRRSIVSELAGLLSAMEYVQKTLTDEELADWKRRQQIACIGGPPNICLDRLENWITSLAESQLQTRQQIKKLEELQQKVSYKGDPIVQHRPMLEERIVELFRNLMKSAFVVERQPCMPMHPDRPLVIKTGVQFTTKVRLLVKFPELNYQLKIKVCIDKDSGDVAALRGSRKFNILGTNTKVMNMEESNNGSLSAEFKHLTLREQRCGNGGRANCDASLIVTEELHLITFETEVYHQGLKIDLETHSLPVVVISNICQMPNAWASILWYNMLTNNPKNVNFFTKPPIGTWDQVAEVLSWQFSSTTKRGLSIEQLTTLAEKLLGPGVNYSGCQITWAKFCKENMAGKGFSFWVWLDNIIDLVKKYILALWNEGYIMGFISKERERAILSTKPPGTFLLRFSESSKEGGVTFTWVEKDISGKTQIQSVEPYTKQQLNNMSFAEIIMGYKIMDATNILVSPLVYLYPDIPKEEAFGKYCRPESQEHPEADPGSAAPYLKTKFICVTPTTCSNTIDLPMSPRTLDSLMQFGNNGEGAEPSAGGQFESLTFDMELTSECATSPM

Consider `O=C(COC(=O)c1ccc(Br)o1)Nc1ncc([N+](=O)[O-])s1`, for which the EC50 in assay [1] was 39.9 µM (active); in assay [2] it was 68.4 µM (active); in [3], 85.8 µM (active). Further, on Caspase-6, the half-maximal activity concentration (AC50) was 8.5 µM (active).

Turning to `O=C(c1ccc(F)cc1)C1CCN(c2ncnc3sccc23)CC1`, the IC50 in [4] was > 55.7 µM (inactive); in assay [5], 1.68 µM (active).

Take `CCCCOC(=O)CCN1C(=O)/C(=C/c2ccccc2)SC1=S`: the concentration giving a half-maximal response (EC50) was 3.2 µM (active) in [6] and 120 nM (active) in assay [7]. Further, in assay [8], the IC50 is 3.2 µM (active).

In the case of `CCOC(=O)c1nn(-c2ccccc2)c(=O)cc1OCC(=O)Nc1ccccc1OCC`, the IC50 is > 20 µM (inactive) on Bcl-2-related protein A1, > 20 µM (inactive) in assay [9] and 14.9 µM (active) in assay [10].

With `COc1ccc(S(=O)(=O)Nc2c(O)ccc3ccccc23)cc1OC`, the AC50 in assay [11] was 5.46 µM (active). Besides, the IC50 is > 49.8 µM (inactive) in assay [12], 27 µM (inactive) with CHO-K1, 3.15 µM (active) in assay [13] and > 16.6 µM (inactive) in assay [14]. Also, the EC50 at Protein RecA is 2.85 µM (active).

Broadly, the EC50 is the concentration at which the effect is half-maximal. As a reminder, the AC50 is the concentration at which the activity in the assay is half-maximal. As a reminder, the IC50 is the midpoint of a concentration-inhibition curve.
